# Assay results: patent US7511068B2, “Mercaptoimidazoles as CCR2 receptor antagonists” (Janssen Pharmaceutica, N.V., priority 2003, dated 2009)
# Biological target: T1, CCR2 receptor (Homo sapiens, UniProt P41597)
# T1 construct: host or cells: THP-1 human monocytic cell line
# T1 sequence (P41597 1-360 isoform P41597-2): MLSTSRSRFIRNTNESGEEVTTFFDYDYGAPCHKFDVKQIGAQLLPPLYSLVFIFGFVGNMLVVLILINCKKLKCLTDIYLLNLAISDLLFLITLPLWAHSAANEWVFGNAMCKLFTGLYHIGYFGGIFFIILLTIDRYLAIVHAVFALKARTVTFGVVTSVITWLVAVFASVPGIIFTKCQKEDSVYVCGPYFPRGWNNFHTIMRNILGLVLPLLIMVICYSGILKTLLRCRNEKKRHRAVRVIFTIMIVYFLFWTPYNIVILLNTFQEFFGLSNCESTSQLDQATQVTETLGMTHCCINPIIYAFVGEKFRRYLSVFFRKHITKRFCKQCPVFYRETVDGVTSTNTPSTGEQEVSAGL
# Assay: Inhibition of MCP-1 induced Ca-flux in human THP-1 cells
# Format: cell-based
# Conditions: inhibition of specific MCP-1 (10^-7 M hMCP-1) induced Ca2+ flux in human THP-1 cells; pIC50 = -log IC50 (molar)
# Description: C. Pharmacological Example Inhibition of MCP-1 Induced Ca-flux in Human THP-1 Cells
# MCP-1 binding to the CCR2 receptor induces a rapid and transient intracellular release of Ca^2+ (secondary messenger) in several cell lines (Charo et al, PNAS 1994). Free Ca^2+ levels can be measured using a Ca^2+ sensitive dye. When the CCR2 receptor is blocked with a CCR2 receptor antagonist, the MCP-1 induced release of Ca^2+ is inhibited.
# Human THP-1 cells (monocytic cell line, ATCC TIB-202) were cultured in RPMI 1640 medium supplemented with 10% fetal calf serum (FCS), 1% L-Glutamine, penicillin (50 U/ml) and streptomycin (50 μg/ml) (all GIBCO BRL, Gent). After centrifugation, cells were loaded for 30 minutes with the Ca^2+ sensitive fluorescent dye Fluo-3 AM (Molecular Probes, Leiden, Netherlands) (2 million cells/ml in RPMI medium containing 4 μM Fluo-3 AM, 20 mM HEPES, 0.1% Bovine Serum Albumin (BSA) and 5 mM probenecid). Excess dye was removed by 3-fold washing with buffer (5 mM HEPES, 140 mM NaCl, 1 mM MgCl2, 5 mM KCl, 10 mM glucose, 2.5 mM probenecid, 1.25 mM CaCl2, 0.1% BSA; all further incubations were done in this buffer). Cells were plated at a density of 150 000 cells/well in dark-wall 96-well plates (Costar, Cambridge, Mass.) and sedimented by centrifugation (1 minute). The cells were pre-incubated for 20 minutes with test compound. Then, 10^−7 M hMCP-1 (Bachem, Bubendorf, Switserland) was added. Changes in intracellular free Ca^2+ concentration were measured using the Fluorescent Imaging Plate Reader (FLIPR, Molecular Devices, Munchen, Germany). Fluorescence was recorded every second from 10 seconds before the addition of the MCP-1 till 2 minutes after the addition (first minute: 60 records with 1 second intervals, second minute 20 records with 3 second intervals).
# The maximal fluorescence obtained during this time frame was used for further calculations.
# Table 4 reports pIC50 values obtained in the above-described test for compounds of formula (I). pIC50 defines −log IC50 wherein IC50 is the molar concentration of the test compound which inhibits 50% of specific MCP-1 induced Ca^2+ flux.
row,SMILES,IC50 [nM]
1,CCC(c1ccc(F)c(C(F)(F)F)c1)n1c(S)nc(C(=O)OC)c1C(=O)OC (centres unmarked) [Compound 3],17.4
2,CCC(c1ccc(Cl)c(Cl)c1)n1c(C(N)=O)c(COC)[nH]c1=S (centres unmarked) [Compound 113],240
3,CCC(c1ccc(Cl)c(Cl)c1)n1c(C(N)=O)cnc1S (centres unmarked) [Compound 59],43.4
4,COC(=O)c1[nH]c(=S)n(C(c2ccc(Cl)c(Cl)c2)C2CC2)c1C(=O)OC (centres unmarked) [Compound 4],27.9
5,COC(=O)c1[nH]c(=S)n(C(c2ccccc2)c2ccc(Cl)c(Cl)c2)c1C(=O)OC (centres unmarked) [Compound 56],203
6,CCC(c1ccc(F)c(C(F)(F)F)c1)n1c(C(=O)OCC(=O)N(CC)CC)c[nH]c1=S (centres unmarked) [Compound 62],1020
7,CCC(c1ccc(F)c(C(F)(F)F)c1)n1c(C(=O)O)c[nH]c1=S (centres unmarked) [Compound 67],2340
8,CCC(c1ccc(Cl)c(Cl)c1)n1c(C(=O)OC)c(C(=O)N2CCOCC2)[nH]c1=S (centres unmarked) [Compound 109],1150
9,CCC(c1ccc(Cl)c(Cl)c1)n1c(C(=O)NNC(C)=O)c[nH]c1=S (centres unmarked) [Compound 119],871
10,CCC(c1ccc(Cl)c(Cl)c1)n1c(C(=O)NC)cnc1S (centres unmarked) [Compound 34],219
11,COC(=O)c1cnc(S)n1C(C)(C)c1ccc(Cl)c(Cl)c1 [Compound 80],4790
12,COC(=O)c1cnc(S)n1C(C)c1ccc(Cl)c(Cl)c1 (centres unmarked) [Compound 32],257
13,CCC(=O)c1c[nH]c(=S)n1C(CC)c1ccc(Cl)c(Cl)c1 (centres unmarked) [Compound 151],299
14,CCC(c1ccc(Cl)c(Cl)c1)n1c(C(=O)O)c(C(=O)O)[nH]c1=S (centres unmarked) [Compound 40],1380
15,COC(=O)c1c[nH]c(=S)n1C(c1ccc(Cl)c(Cl)c1)C1CC1 (centres unmarked) [Compound 2],2140
16,CCOC(=O)c1cnc(S)n1C(CC)c1ccc(F)c(C(F)(F)F)c1 (centres unmarked) [Compound 12],347
17,CCC(c1ccc(Cl)c(Cl)c1)n1c(S)nc(C(=O)O)c1C#N (centres unmarked) [Compound 88],174
18,COC(=O)c1c(C(N)=O)[nH]c(=S)n1C(C)c1ccc(Cl)c(Cl)c1 (centres unmarked) [Compound 90],133
19,CCC(c1ccc(C(F)(F)F)c(F)c1)n1c(C(=O)OC)cnc1S (centres unmarked) [Compound 43],2000
20,COCC(c1ccc(Cl)c(Cl)c1)n1c(C(=O)OC)cnc1S (centres unmarked) [Compound 94],305
21,CCC(c1ccc(Cl)c(Cl)c1)n1c(C(=O)NNC=O)c[nH]c1=S (centres unmarked) [Compound 120],1050
22,CCC(c1ccc(Cl)c(Cl)c1)n1c(C(=O)NCCO)c[nH]c1=S (centres unmarked) [Compound 105],130
23,COCC(c1ccc(Cl)c(Cl)c1)n1c(C(=O)OC)c(C(=O)OC)[nH]c1=S (centres unmarked) [Compound 100],32.4
24,CCC(c1ccc(Cl)c(Cl)c1)n1c(C(=O)NC)c(COC)[nH]c1=S (centres unmarked) [Compound 114],1780

row,SMILES,IC50 [nM]
1,CCC(c1ccc(F)c(F)c1)n1c(C(=O)NC)cnc1S (centres unmarked) [Compound 36],2240
2,CC[C@H](c1ccc(Cl)c(Cl)c1)n1c(C(=O)OC)cnc1S [Compound 16],1020
3,CCC(c1ccc(Cl)c(Cl)c1)n1c(S)nc(C(N)=O)c1C#N (centres unmarked) [Compound 19],120
4,CCC(c1ccc(Cl)c(Cl)c1)n1c(C(=O)OC)c(C(=O)NNC(C)=O)[nH]c1=S (centres unmarked) [Compound 96],186
5,CCC(c1ccc(F)c(F)c1)n1c(C(=O)OC)c(C(N)=O)[nH]c1=S (centres unmarked) [Compound 142],58.9
6,CCC(c1ccc(Cl)c(Cl)c1)n1c(C(=O)OC)c(C)[nH]c1=S (centres unmarked) [Compound 6],263
7,CCC(c1ccc(F)c(C(F)(F)F)c1)n1c(C(N)=O)cnc1S (centres unmarked) [Compound 10],204
8,CCC(c1ccc(F)c(F)c1)n1c(C(=O)OC)c(C(=O)OC(C)(C)C)[nH]c1=S (centres unmarked) [Compound 137],2510
9,CCC(c1ccc(Cl)c(Cl)c1)n1cc(C(=O)NC)[nH]c1=S (centres unmarked) [Compound 52],8130
10,CCC(c1ccc(F)c(C(F)(F)F)c1)n1c(C(=O)OCCO)cnc1S (centres unmarked) [Compound 61],229
11,CCC(c1ccc(Br)c(Br)c1)n1c(C(N)=O)c[nH]c1=S (centres unmarked) [Compound 138],176
12,CCC(c1cc(F)c(F)c(F)c1)n1c(C(=O)OC)c[nH]c1=S (centres unmarked) [Compound 135],4270
13,CCCC(c1ccc(Cl)c(Cl)c1)n1c(C(=O)NC)c(C(=O)NC)[nH]c1=S (centres unmarked) [Compound 69],394
14,CC[C@@H](c1ccc(Cl)c(Cl)c1)n1c(C(=O)OC)cnc1S [Compound 17],87.1
15,CCC(c1cc(F)c(F)c(F)c1)n1c(C(=O)OC)c(C(=O)OC)[nH]c1=S (centres unmarked) [Compound 148],33.5
16,CCC(c1ccc(Cl)c(Cl)c1)n1c(C(=O)N(C)OC)c[nH]c1=S (centres unmarked) [Compound 106],1780
17,CCCC(c1cccc(Cl)c1)n1c(C(=O)OC)c[nH]c1=S (centres unmarked) [Compound 24],891
18,CCCC(c1ccc(Cl)c(Cl)c1)n1c(C(=O)OC)c(C(N)=O)[nH]c1=S (centres unmarked) [Compound 149],32.4
19,CCC(c1ccc(Br)c(Br)c1)n1c(C(=O)OC)cnc1S (centres unmarked) [Compound 76],257
20,CCC(c1ccc(Cl)c(Cl)c1)n1c(S)nc(C(=O)OC)c1C(=O)OC (centres unmarked) [Compound 37],9.68
21,CCC(c1ccc(Cl)c(Cl)c1)n1c(C#N)cnc1S (centres unmarked) [Compound 7],700
22,CCC(c1ccc(C)c(C)c1)n1c(C(=O)OC)c(C(=O)OC)[nH]c1=S (centres unmarked) [Compound 99],343
23,CCC(c1ccc(Cl)c(Cl)c1)n1c(S)nc(C(=O)NC)c1C(=O)OC (centres unmarked) [Compound 87],33.1
24,CCC(c1ccc(Cl)cc1)n1c(C(=O)OC)cnc1S (centres unmarked) [Compound 123],4680

row,SMILES,IC50 [nM]
1,CCC(c1ccc(Cl)c(Cl)c1)n1c(C(=O)O)cnc1S (centres unmarked) [Compound 23],3310
2,COC(=O)c1[nH]c(=S)n(C(C)c2ccc(Cl)c(Cl)c2)c1C(=O)OC (centres unmarked) [Compound 55],12.6
3,O=c1[nH][nH]c(=O)c2c1[nH]c(=S)n2C(c1ccc(Cl)c(Cl)c1)C1CC1 (centres unmarked) [Compound 77],331
4,CCC(c1ccc(Cl)c(Cl)c1)n1c(C(=O)OC)c(C(=O)NCCO)[nH]c1=S (centres unmarked) [Compound 110],112
5,CCCC(c1ccc(Cl)cc1)n1c(C(=O)OC)c[nH]c1=S (centres unmarked) [Compound 25],3550
6,COC(=O)c1c[nH]c(=S)n1C(C)c1ccc(Cl)cc1 (centres unmarked) [Compound 31],3720
7,CCC(c1ccc(Cl)c(Cl)c1)n1c(C(=O)OC)c(C(=O)N2CCCCC2)[nH]c1=S (centres unmarked) [Compound 108],112
8,CCC(c1ccc(Cl)c(Cl)c1)n1cc(C(N)=O)[nH]c1=S (centres unmarked) [Compound 51],1780
9,CCC(c1cc(F)cc(F)c1)n1c(C(=O)OC)cnc1S (centres unmarked) [Compound 118],8320
10,CCC(c1ccc(Cl)c(Cl)c1)n1c(C(=O)OC)cnc1S (centres unmarked) [Compound 15],191
11,CCC(c1ccc(F)c(C(F)(F)F)c1)n1c(C(=O)NC)c[nH]c1=S (centres unmarked) [Compound 49],2290
12,CCC(c1ccc(Cl)c(Cl)c1)n1c(C#N)c(C(=O)OC)[nH]c1=S (centres unmarked) [Compound 5],39.8
13,CCC(c1ccc(Cl)c(Cl)c1)n1c(C(=O)NN)c[nH]c1=S (centres unmarked) [Compound 95],245
14,CC(c1ccc(Cl)c(Cl)c1)n1c(C(N)=O)c[nH]c1=S (centres unmarked) [Compound 54],1100
15,CCC(c1ccc(Cl)c(Cl)c1)n1cc(C(=O)OCCO)[nH]c1=S (centres unmarked) [Compound 63],1020
16,CCC(c1ccc(Cl)c(Cl)c1)n1c(S)nc(C(N)=O)c1C(=O)OC (centres unmarked) [Compound 86],49.9
17,CCC(c1ccc(Cl)c(Cl)c1)n1c(S)nc(C(=O)O)c1C(=O)OC (centres unmarked) [Compound 68],841
18,CCC(c1ccc(C(F)(F)F)c(F)c1)n1c(S)nc(C(=O)OC)c1C(=O)OC (centres unmarked) [Compound 48],89.1
19,CCC(c1ccc(Cl)c(Cl)c1)n1c(C(=O)OC(C)C)cnc1S (centres unmarked) [Compound 33],263
20,CCC(c1ccc(F)c(F)c1)n1c(S)nc(C(=O)OC)c1C(=O)OC (centres unmarked) [Compound 39],7.24
21,CCOC(=O)c1c(C)[nH]c(=S)n1C(CC)c1ccc(Cl)c(Cl)c1 (centres unmarked) [Compound 75],263
22,CCC(c1ccc(Br)c(Br)c1)n1c(C(=O)O)c[nH]c1=S (centres unmarked) [Compound 74],3390
23,CCC(c1ccc(Cl)c(Cl)c1)n1c(S)nc(C(N)=O)c1C(N)=O (centres unmarked) [Compound 20],56.9
